For eleven compounds, EC50 and IC50 results are on record in patent US20240043427A1 (Gilead Sciences, Inc., priority 2020, published 2024).

One may read the EC50 as the concentration at which the effect is half-maximal. A high value points to a less potent agent. In general, IC50 refers to the midpoint of a concentration-inhibition curve. High values mean weaker potency, low ones greater potency.

Molecules are shown by their SMILES.

Test [1] concerns the target T1, CD73 (Homo sapiens (Human), UniProt P21589). Put plainly: MDA-MB-231 Cell Based CD73 Activity Assay (DMEM). Particulars: MDA-MB-231-GFP cells, DMEM medium with 10% human plasma, 200 uM AMP.
For test [2], the target named is T1, CD73. The test is classed as biochemical. As to conditions: 1 mM NaH2PO4 in enzyme buffer, CD73 0.3 nM, AMP 15 uM.

T1 sequence (P21589 27-574): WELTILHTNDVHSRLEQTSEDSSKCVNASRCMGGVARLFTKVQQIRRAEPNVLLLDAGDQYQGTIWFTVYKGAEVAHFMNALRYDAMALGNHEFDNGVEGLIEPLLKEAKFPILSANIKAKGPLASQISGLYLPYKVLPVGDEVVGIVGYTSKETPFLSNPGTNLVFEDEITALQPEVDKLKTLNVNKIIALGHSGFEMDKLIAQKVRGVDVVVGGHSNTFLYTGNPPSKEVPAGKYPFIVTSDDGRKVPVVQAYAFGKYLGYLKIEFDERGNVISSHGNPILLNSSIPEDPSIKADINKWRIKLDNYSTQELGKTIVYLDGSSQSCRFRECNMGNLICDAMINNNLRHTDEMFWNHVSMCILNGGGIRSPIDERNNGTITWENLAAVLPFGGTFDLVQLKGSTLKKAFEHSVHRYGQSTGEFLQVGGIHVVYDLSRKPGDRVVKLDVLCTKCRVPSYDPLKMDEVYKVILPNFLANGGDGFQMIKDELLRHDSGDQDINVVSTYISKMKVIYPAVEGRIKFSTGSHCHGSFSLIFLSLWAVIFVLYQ

`O=c1[nH]cc(-c2cc(NCC(F)(F)c3ccccc3)c3nccn3n2)c(=O)[nH]1` [Example 498, 5-(8-((2,2-difluoro-2-phenylethyl)amino)imidazo[1,2-b]pyridazin-6-yl)pyrimidine-2,4(1H,3H)-dione] had an EC50 on CD73 [1] of 260 nM. For the same compound, half-maximal inhibition at CD73 [2] (IC50) was put at 50.7 nM.

In turn, `C[C@H](CNc1cc(-c2c[nH]c(=O)[nH]c2=O)nn2ccnc12)c1ccccc1` [Example 499, (S)-5-(8-((2-phenylpropyl)amino)imidazo[1,2-b]pyridazin-6-yl)pyrimidine-2,4(1H,3H)-dione] gave an EC50 on CD73 [1] of 501 nM. The compound further had an IC50 against CD73 [2] of 163 nM.

In turn, `C[C@@H](CNc1cc(-c2c[nH]c(=O)[nH]c2=O)nn2ccnc12)c1ccccc1` [Example 500, (R)-5-(8-((2-phenylpropyl)amino)imidazo[1,2-b]pyridazin-6-yl)pyrimidine-2,4(1H,3H)-dione] returned an EC50 on CD73 [1] of 457 nM. On CD73 [2], this compound came in with a 50% inhibitory concentration (IC50) of 108 nM.

`O=c1[nH]cc(-c2cc(N3CC(F)(F)C4(CNC4)C3)c3nccn3n2)c(=O)[nH]1` [Example 501, 5-(8-(8,8-difluoro-2,6-diazaspiro[3.4]octan-6-yl)imidazo[1,2-b]pyridazin-6-yl)pyrimidine-2,4(1H,3H)-dione] registered a 50% effective concentration (EC50) on CD73 [1] of 108 nM. Also, on CD73 [2], the concentration for half-maximal inhibition (IC50) was 20.9 nM.

With `O=c1[nH]cc(-c2cc(N3CC(F)(F)C4(CN(Cc5cccc(F)c5)C4)C3)c3nccn3n2)c(=O)[nH]1` [Example 502, 5-(8-(8,8-difluoro-2-(3-fluorobenzyl)-2,6-diazaspiro[3.4]octan-6-yl)imidazo[1,2-b]pyridazin-6-yl)pyrimidine-2,4(1H,3H)-dione], the EC50 on CD73 [1] was 44.4 nM. At CD73 [2], this compound displayed an IC50 of 9.06 nM.

`CC(=O)N1CC2(C1)CN(c1cc(-c3c[nH]c(=O)[nH]c3=O)nn3ccnc13)CC2(F)F` [Example 503, 5-(8-(2-acetyl-8,8-difluoro-2,6-diazaspiro[3.4]octan-6-yl)imidazo[1,2-b]pyridazin-6-yl)pyrimidine-2,4(1H,3H)-dione] displayed a half-maximal effective concentration (EC50) on CD73 [1] of 5.47 nM. At CD73 [2], it took 5.22 nM to reach half-maximal inhibition (IC50).

`COC(=O)N1CC2(C1)CN(c1cc(-c3c[nH]c(=O)[nH]c3=O)nn3ccnc13)CC2(F)F` [Example 504, Methyl 6-(6-(2,4-dioxo-1,2,3,4-tetrahydropyrimidin-5-yl)imidazo[1,2-b]pyridazin-8-yl)-8,8-difluoro-2,6-diazaspiro[3.4]octane-2-carboxylate] registered an EC50 at CD73 [1] of 5.62 nM. The same compound returned an IC50 on CD73 [2] of 6.78 nM.

As for `O=C(OCc1ccccc1)N1CC2(C1)CN(c1cc(-c3c[nH]c(=O)[nH]c3=O)nn3ccnc13)CC2(F)F` [Example 505, benzyl 6-(6-(2,4-dioxo-1,2,3,4-tetrahydropyrimidin-5-yl)imidazo[1,2-b]pyridazin-8-yl)-8,8-difluoro-2,6-diazaspiro[3.4]octane-2-carboxylate], on CD73 [1], the EC50 was 10.1 nM. This compound yielded a half-inhibitory concentration (IC50) at CD73 [2] of 5.61 nM.

The compound `O=C(OCC(F)(F)F)N1CC2(C1)CN(c1cc(-c3c[nH]c(=O)[nH]c3=O)nn3ccnc13)CC2(F)F` [Example 506, 2,2,2-trifluoroethyl 6-(6-(2,4-dioxo-1,2,3,4-tetrahydropyrimidin-5-yl)imidazo[1,2-b]pyridazin-8-yl)-8,8-difluoro-2,6-diazaspiro[3.4]octane-2-carboxylate] yielded an EC50 on CD73 [1] of 8.67 nM. Further, on CD73 [2], 8.82 nM corresponded to half-maximal inhibition (IC50).

On CD73 [1], `O=c1[nH]cc(-c2cc(N3CC(F)(F)C4(CN(CC(F)F)C4)C3)c3nccn3n2)c(=O)[nH]1` [Example 507, 5-(8-(2-(2,2-difluoroethyl)-8,8-difluoro-2,6-diazaspiro[3.4]octan-6-yl)imidazo[1,2-b]pyridazin-6-yl)pyrimidine-2,4(1H,3H)-dione] yielded an EC50 of 19.7 nM. The same compound yielded an IC50 against CD73 [2] of 9.83 nM.

The compound `O=c1[nH]cc(-c2cc(N3CC(F)(F)C4(CN(CC(F)(F)F)C4)C3)c3nccn3n2)c(=O)[nH]1` [Example 508, 5-(8-(8,8-difluoro-2-(2,2,2-trifluoroethyl)-2,6-diazaspiro[3.4]octan-6-yl)imidazo[1,2-b]pyridazin-6-yl)pyrimidine-2,4(1H,3H)-dione] returned an EC50 at CD73 [1] of 29 nM. This compound yielded a concentration for half-maximal inhibition (IC50) on CD73 [2] of 15 nM.
